# Source: patent publication US9388195B2, “Heterocyclic compound” (Takeda Pharmaceutical Company Limited, priority 2010, dated 2016)
# Where a name gives a salt, the structure may show the parent alone.
# Tests used:
# [1] = system: phosphorylated MCM2 (Ser40/Ser41); assay: animal or person; conditions: Mus musculus, COLO 205, po, 4 h, read-out: inhibitory rate (%)
# Description: Human colorectal cancer cell Colo205 was suspended in 50% Matrigel solution, and transplanted into 6- to 7-week-old female BALB/c mice (CLEA Japan, Inc.) at 5.0×10^6 cells by subcutaneous injection. The diameter of the tumor engrafted in 7 to 14 days from the transplantation was measured, and the tumor volume was calculated by the following formula. Tumor volume=long diameter×short diameter×short diameter×(½)
# A suspension of the test compound in 0.5% methylcellulose solution (Wako Pure Chemical Industries, Ltd.) was orally administered at a dose shown in the Table to mice having a tumor volume of 150-600 mm^3. The tumor was removed under ether anesthesia at 4 hr after administration of the test compound, and homogenized in Cell Lysis Buffer (Cell Signaling). Using BCA Protein assay kit (Thermo Scientific), the protein in the tumor lysate was quantified, and the protein amount was adjusted. The above-mentioned protein solution was treated with Laemmli Sample Buffer (BioRad) at 95° C. for 5 min.
# Then, SDS-PAGE was performed and the protein was transferred onto a PVDF membrane by using iBlot™ gel transfer system (Invitrogen). […] The membrane was washed in the same manner as above, chemical luminescence of antibody-labeled phosphorylated MCM2 protein using SuperSignal West FemtoMaximum Sensitivity Substrate (Pierce Biotechnology) was detected by lumino image analyzer LAS-1000 (Fuji Film).
# Using the anti-MCM2 antibody (Santa Cruzu Biotechnology, sc-9839) and HRP-labeled goat IgG polyclonal antibody (Santa Cruzu Biotechnology, sc-2020) and in the same manner as above, the MCM2 protein was detected.
# The phosphorylated MCM2 specific activity of each sample was calculated by the following formula. Phosphorylated MCM2 specific activity=(phosphorylated MCM2 luminescence level-background)+(MCM2 luminescence level-background)
# The phosphorylated MCM2 protein inhibitory rate (%) of the test compound was calculated by the following formula and shown in Table. […]
# [2] = system: human colorectal cancer cell Colo205; assay: Measurement of antitumor activity in human colorectal cancer cell Colo205 cancer bearing mouse; format: in vivo; conditions: Colo205 tumor growth ratio, mice
# Description: Tumor volume=long diameter×short diameter×short diameter×(½) Mice having an engrafted tumor volume of about 200 mm^3 were selected, and 5 mice per group were used for the experiment. […] The tumor diameter was measured one day before the start of the administration and the next day of the completion of the administration and the tumor volume was calculated. The tumor growth ratio of the test compound administration group as compared to that of the control administration group was taken as T/C(%) and calculated by the following formula. T/C(%)=(tumor volume of test compound administration group after completion of administration−tumor volume of test compound administration group one day before start of administration)/(tumor volume of control administration group after completion of administration−tumor volume of control administration group one day before start of administration))×100
# Cdc7/Dbf4 complex = molecular target: T1, Cdc7/Dbf4 complex (Homo sapiens, UniProt O00311); assay: Measurement of Cdc7 kinase inhibitory activity (Transcreener ADP HTRF assay); format: biochemical; conditions: Cdc7/Dbf4, 1.0 μm ATP, 10 μg/ml MCM2; for inhibition at 1 µM: read-out: inhibitory rate (%) at 1 μM, test compound 1 μM; for inhibitory rate (%) at 1 μM: test compound 1 μM
# T1 construct: Full-length Cdc7 co-expressed with full-length Dbf4; purchased Carna Biosciences (Kobe)
# T1 sequence (O00311 whole entry): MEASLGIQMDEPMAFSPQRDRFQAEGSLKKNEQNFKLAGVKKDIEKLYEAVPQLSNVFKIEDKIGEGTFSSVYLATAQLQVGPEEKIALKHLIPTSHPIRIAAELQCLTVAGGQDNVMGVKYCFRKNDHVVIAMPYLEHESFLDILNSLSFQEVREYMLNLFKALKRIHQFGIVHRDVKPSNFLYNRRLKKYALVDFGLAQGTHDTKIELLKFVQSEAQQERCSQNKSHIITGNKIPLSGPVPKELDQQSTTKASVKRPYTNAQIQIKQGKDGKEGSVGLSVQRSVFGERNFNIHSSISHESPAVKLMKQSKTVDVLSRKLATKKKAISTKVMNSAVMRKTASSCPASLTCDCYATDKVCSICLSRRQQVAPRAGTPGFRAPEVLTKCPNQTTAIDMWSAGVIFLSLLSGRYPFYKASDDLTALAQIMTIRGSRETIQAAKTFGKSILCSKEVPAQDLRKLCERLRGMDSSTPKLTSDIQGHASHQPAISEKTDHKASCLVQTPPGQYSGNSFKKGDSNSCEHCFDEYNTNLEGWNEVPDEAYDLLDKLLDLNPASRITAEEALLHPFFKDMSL
# T1 sequence (Q9UBU7 whole entry partner): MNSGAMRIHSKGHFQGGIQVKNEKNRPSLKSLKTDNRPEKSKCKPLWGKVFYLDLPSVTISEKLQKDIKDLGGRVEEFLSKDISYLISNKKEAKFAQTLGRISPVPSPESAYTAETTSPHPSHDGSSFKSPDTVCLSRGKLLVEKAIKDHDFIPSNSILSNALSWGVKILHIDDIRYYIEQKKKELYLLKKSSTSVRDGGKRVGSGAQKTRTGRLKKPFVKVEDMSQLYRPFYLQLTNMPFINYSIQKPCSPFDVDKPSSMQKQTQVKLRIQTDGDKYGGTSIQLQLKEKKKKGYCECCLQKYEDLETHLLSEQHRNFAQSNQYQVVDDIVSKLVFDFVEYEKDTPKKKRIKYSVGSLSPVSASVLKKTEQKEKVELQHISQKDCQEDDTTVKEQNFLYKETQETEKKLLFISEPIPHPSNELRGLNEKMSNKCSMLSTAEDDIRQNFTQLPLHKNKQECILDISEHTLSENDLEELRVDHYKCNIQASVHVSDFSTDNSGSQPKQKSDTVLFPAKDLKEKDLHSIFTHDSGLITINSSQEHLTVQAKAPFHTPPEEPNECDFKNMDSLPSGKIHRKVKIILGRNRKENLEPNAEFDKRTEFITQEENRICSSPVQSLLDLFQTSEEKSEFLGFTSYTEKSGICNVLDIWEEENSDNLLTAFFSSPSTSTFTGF
# Description: Full-length Cdc7 co-expressed with full-length Dbf4 was purchased from Carna Biosciences (Kobe). The enzyme activity of Cdc7/Dbf4 complex was detected by homogeneous time-resolved fluorescence method Transcreener ADP assay (Cisbio Inc., MA, U.S.A.). […] Free ADP produced by ATP hydrolysis was detected by Eu^3+-Cryptate-labeled anti-ADP monoclonal antibody competitively with d2-labeled ADP, and the production amount thereof was measured. The obtained time-resolved fluorescence resonance energy transfer signal was measured by EnVision (Perkin Elmer Inc., MA, U.S.A.). The inhibitory rate (%) of the test compound to Cdc7 was calculated by the following formula. Inhibitory rate(%)=(1−(count of test compound-blank)[…](control-blank))×100
# The count of the Cdc7/Dbf4 reaction mixture under compound-free conditions was taken as the control, and that under compound-free and Cdc7/Dbf4-free conditions was taken as the blank.
# [3] = system: phosphorylated MCM2 (Ser40/Ser41); assay: Measurement of MCM2 phosphorylation inhibitory activity in human colorectal cancer cell Colo205 (Western blot); format: cell-based; conditions: COLO 205, 8 h, read-out: inhibitory rate (%) at 1 μM
# Description: The MCM2 phosphorylation suppressive action of the compound of the present invention in human colorectal cancer cell Colo205 can be measured as follows. A cell suspension (500 μl) of human colorectal cancer cell Colo205 (purchased from ATCC) (50,000 cells/well) was plated in a 24 well plate, and cultured in a 5% carbon dioxide gas incubator at 37° C. for 1 day. […] The plate was washed with PBS, the cells were lysed in Laemmli Sample Buffer (BioRad), and cell lysate was treated at 95° C. for 5 min.
# [4] = system: human colorectal cancer cell Colo205; assay: Measurement of growth inhibitory activity on human colorectal cancer cell Colo205 (CellTiter-Glo); format: cell-based; conditions: COLO 205, 72 h, read-out: inhibitory rate (%) at 1 μM
# Description: The growth inhibition of colorectal cancer cell Colo205 with the compound of the present invention can be measured as follows.
# A cell suspension (100 μl) of human colorectal cancer cell Colo205 (purchased from ATCC) (3,000 cells/well) was plated in a 96 well plate, and cultured in a 5% carbon dioxide gas incubator at 37° C. for 1 day. Each 2 μM test compound solution was added by 100 μl and the cells were cultured for 3 days. CellTiter-Glo™ Luminescent Cell Viability Assay reagent (50 μl, Promega) was added to the 96 well plate, the luminescence level was measured by a luminometer and the residual ATP amount was taken as the cell amount. The luminescence level of a well free of cell plating was taken as a blank. The cell proliferation inhibitory rate (%) of the test compound was calculated by the following formula. Inhibitory rate(%)=(1−(luminescence level of test compound—blank)[…](luminescence level of control group—blank))×100
# [5] = 100 mg/kg orally twice a day for 14 days
SMILES,inhibition at 1 µM (Cdc7/Dbf4 complex),inhibitory rate (%) at 1 μM (Cdc7/Dbf4 complex; dihydrochloride),inhibition at 100 mg/kg [1],"T/C (%) [2, 5]",inhibition at 1 µM [3],inhibition at 1 µM [4],T/C (%) ([2]; 50 mg/kg orally twice a day for 14 days),inhibitory rate (%) at 1 μM (Cdc7/Dbf4 complex; hydrochloride)
"Cc1[nH]ncc1-c1cc2nc([C@@H]3CC=CCN3)[nH]c(=O)c2s1 [Example 145, 6-(5-methyl-1H-pyrazol-4-yl)-2-[(2S)-1,2,3,6-tetrahydropyridin-2-yl]thieno[3,2-d]pyrimidin-4 (3H)-one dihydrochloride]",126%,–,68.9%,−4.7%,95.8%,78.5%,–,–
"Cc1[nH]ncc1-c1cc2nc([C@H]3NC4CC3[C@H](F)C4)[nH]c(=O)c2s1 (single isomer, unassigned) [Example 175, 2-[(1R,3S,4R,5R) or (1S,3S,4S,5R)-5-fluoro-2-azabicyclo[2.2.1]hept-3-yl]-6-(5-methyl-1H-pyrazol-4-yl)thieno[3,2-d]pyrimidin-4 (3H)-one hydrochloride]",–,–,–,–,–,–,40.3%,105%
"Cc1[nH]ncc1-c1cc2nc(CN3CCCC3)[nH]c(=O)c2s1 [Example 2, 6-(5-methyl-1H-pyrazol-4-yl)-2-(pyrrolidin-1-ylmethyl)thieno[3,2-d]pyrimidin-4 (3H)-one]",93.8%,–,–,–,90.4%,44.1%,–,–
"O=c1[nH]c([C@@H]2CCCCN2)nc2cc(-c3cn[nH]c3C(F)(F)F)sc12 [Example 161, 2-[(2S)-piperidin-2-yl]-6-[5-(trifluoromethyl)-1H-pyrazol-4-yl]thieno[3,2-d]pyrimidin-4 (3H)-one hydrochloride]",102%,–,80.9%,−3.6%,96.2%,78.6%,–,–

# Now from value to molecule, other results behind:
inhibition at 1 µM (Cdc7/Dbf4 complex),inhibitory rate (%) at 1 μM (Cdc7/Dbf4 complex; dihydrochloride),SMILES,inhibition at 100 mg/kg [1],"T/C (%) [2, 5]",inhibition at 1 µM [3],inhibition at 1 µM [4],T/C (%) ([2]; 50 mg/kg orally twice a day for 14 days),inhibitory rate (%) at 1 μM (Cdc7/Dbf4 complex; hydrochloride)
–,102.6%,"Cc1[nH]ncc1-c1cc2nc([C@@H]3CCCN3)[nH]c(=O)c2s1 [Example 37, 6-(5-methyl-1H-pyrazol-4-yl)-2-[(2S)-pyrrolidin-2-yl]thieno[3,2-d]pyrimidin-4 (3H)-one dihydrochloride]",–,–,98.4%,75.3%,–,–
–,125.5%,"Cc1[nH]ncc1-c1cc2nc([C@@H]3CCCCN3)[nH]c(=O)c2s1 [Example 83, 6-(5-methyl-1H-pyrazol-4-yl)-2-[(2S)-piperidin-2-yl]thieno[3,2-d]pyrimidin-4 (3H)-one dihydrochloride]",71.8%,5.7%,97.6%,76.6%,–,–
